IC50 data for 6 compounds are collected here from US20210253642A1, “CALPAIN MODULATORS AND THERAPEUTIC USES THEREOF BACKGROUND” (Blade Therapeutics, Inc., priority 2018, published 2021).

pIC50: −log10 of the molar value.

Common to all, as to assay type: biochemical
The target in assay [1] is T1, Human Cathepsin L (Homo sapiens, UniProt P07711).
T1 construct: purchased
The assay can be described thus: Cathepsin continuous fluorescence inhibition assay. Conditions: Column G; enzyme 0.025 nM, substrate 1 uM, pH 6.0, 30 minutes pre-incubation with inhibitor. On the procedure: (§1) Cathepsin activity and inhibition thereof was assessed by means of a continuous fluorescence assay. All assays were run in 384 well format and utilized peptide substrates that liberate fluorescence upon protease catalyzed cleavage. FLIPR plate readers (Molecular Devices Inc.) were used to monitor reactions and extract initial rates which were then fit (four parameter logistic function) to obtain IC50 values. All enzymes are human. All enzymes and reagents were obtained commercially and are summarized in Tables 1 and 2 below along with assay conditions.

The target of assay [2] is T2, Human Cathepsin K (Homo sapiens, UniProt P43235).
T2 construct: purchased
T2 sequence (P43235 115-329): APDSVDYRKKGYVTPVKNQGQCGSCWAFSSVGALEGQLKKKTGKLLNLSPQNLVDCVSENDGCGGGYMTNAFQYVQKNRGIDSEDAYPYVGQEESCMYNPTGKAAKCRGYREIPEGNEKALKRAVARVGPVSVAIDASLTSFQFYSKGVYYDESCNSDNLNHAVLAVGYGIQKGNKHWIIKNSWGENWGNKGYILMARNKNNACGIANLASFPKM
Kind of assay: Cathepsin continuous fluorescence inhibition assay. As to conditions: Column E; enzyme 10 nM, substrate 1 uM, pH 5.5, 30 minutes pre-incubation with inhibitor. As for the experimental part: as §1

In assay [3] the target is T3, Human Cathepsin S (Homo sapiens, UniProt P25774).
T3 construct: purchased
T3 sequence (P25774 115-331): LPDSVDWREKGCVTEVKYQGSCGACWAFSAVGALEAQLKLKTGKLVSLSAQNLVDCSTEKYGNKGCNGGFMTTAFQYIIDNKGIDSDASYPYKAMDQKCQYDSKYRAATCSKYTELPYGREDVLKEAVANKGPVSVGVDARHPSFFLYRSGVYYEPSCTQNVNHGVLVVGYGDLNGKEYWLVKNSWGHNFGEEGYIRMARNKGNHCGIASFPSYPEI
Kind of assay: Cathepsin continuous fluorescence inhibition assay. As to conditions: Column F; enzyme 6 nM, substrate 1 uM, pH 4.5, 30 minutes pre-incubation with inhibitor. On the procedure: as §1

Assay [4] has as its target T4, Human Cathepsin B (Homo sapiens, UniProt P07858).
T4 construct: purchased
The assay can be described thus: Cathepsin continuous fluorescence inhibition assay. Conditions: Column D; enzyme 25 nM, substrate 1 uM, pH 5.0, 30 minutes pre-incubation with inhibitor. As for the experimental part: as §1

The target in assay [5] is T5, Human Calpain 2/NS1 (Homo sapiens, UniProt P17655).
T5 sequence (P17655 1-700): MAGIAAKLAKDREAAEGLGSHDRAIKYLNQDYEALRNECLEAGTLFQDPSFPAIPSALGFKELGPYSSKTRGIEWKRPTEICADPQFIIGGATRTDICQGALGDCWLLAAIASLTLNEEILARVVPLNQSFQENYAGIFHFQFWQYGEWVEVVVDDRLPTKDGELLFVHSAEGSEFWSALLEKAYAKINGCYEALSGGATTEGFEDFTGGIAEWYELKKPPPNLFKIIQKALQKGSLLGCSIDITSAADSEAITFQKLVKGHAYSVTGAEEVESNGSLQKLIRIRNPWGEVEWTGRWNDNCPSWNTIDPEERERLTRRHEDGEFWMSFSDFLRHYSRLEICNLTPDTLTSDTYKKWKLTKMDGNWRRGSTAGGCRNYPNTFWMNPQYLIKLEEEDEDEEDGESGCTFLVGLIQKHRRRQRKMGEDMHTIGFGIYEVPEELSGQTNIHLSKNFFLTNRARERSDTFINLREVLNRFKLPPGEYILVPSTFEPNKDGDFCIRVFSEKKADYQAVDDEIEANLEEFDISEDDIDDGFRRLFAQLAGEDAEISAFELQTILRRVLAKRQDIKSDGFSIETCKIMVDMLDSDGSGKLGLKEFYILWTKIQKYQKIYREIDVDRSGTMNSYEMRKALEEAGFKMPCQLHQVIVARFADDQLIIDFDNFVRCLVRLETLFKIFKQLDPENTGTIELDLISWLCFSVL
T5 sequence (P04632 1-268 partner): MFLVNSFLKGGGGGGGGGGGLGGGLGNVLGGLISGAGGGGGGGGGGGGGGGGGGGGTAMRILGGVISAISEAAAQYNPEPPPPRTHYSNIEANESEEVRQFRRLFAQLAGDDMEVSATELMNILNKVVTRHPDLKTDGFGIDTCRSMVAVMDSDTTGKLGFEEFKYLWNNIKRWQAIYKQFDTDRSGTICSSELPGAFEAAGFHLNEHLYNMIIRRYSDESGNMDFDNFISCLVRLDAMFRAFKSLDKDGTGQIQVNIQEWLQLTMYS
Kind of assay: Calpain continuous fluorescence (FRET) inhibition assay. As to conditions: Column B; SensoLyte 520 FRET substrate, pH 7.5, 25C. As for the experimental part:
(§2) Calpain 1, 2, and 9 activity and inhibition thereof was assessed by means of a continuous fluorescence assay. The SensoLyte 520 Calpain substrate (Anaspec Inc.) was optimized for detecting calpain activity. This substrate contains an internally quenched 5-FAM/QXLTM 520 FRET pair. Calpains 1, 2, and 9 cleave the FRET substrate into two separate fragments resulting in an increase of 5-FAM fluorescence that is proportional to calpain activity
(§3) Assays were typically setup in black 384-well plates using automated liquid handling as follows. Calpain assay base buffer typically contains 50 mM Tris, pH 7.5, 100 mM NaCl and 1 mM DTT. Inhibitors were serially diluted in DMSO and used to setup 2× mixtures with calpains in the aforementioned buffer. After incubation at ambient temperature (25C), the reaction was initiated by adding a 2× mix of the fluorescent peptide substrate and CaCl2) (required for in-situ calpain activation) in the same buffer. Reaction progress curve data were typically collected for 10 min using excitation/emission wavelengths of 490 nm/520 nm on SpectraMax i3x or the FLIPR-Tetra plate readers (Molecular Devices Inc.). Reaction rates were calculated from progress curve slopes typically over 1-5 min. Dose response curves (rate vs. log inhibitor concentration) were typically fit to a 4-parameter logistic function to extract IC50 values.

Assay [6] concerns the target T6, Human Calpain 1/NS1 (Homo sapiens, UniProt P07384).
T6 sequence (P07384 1-714): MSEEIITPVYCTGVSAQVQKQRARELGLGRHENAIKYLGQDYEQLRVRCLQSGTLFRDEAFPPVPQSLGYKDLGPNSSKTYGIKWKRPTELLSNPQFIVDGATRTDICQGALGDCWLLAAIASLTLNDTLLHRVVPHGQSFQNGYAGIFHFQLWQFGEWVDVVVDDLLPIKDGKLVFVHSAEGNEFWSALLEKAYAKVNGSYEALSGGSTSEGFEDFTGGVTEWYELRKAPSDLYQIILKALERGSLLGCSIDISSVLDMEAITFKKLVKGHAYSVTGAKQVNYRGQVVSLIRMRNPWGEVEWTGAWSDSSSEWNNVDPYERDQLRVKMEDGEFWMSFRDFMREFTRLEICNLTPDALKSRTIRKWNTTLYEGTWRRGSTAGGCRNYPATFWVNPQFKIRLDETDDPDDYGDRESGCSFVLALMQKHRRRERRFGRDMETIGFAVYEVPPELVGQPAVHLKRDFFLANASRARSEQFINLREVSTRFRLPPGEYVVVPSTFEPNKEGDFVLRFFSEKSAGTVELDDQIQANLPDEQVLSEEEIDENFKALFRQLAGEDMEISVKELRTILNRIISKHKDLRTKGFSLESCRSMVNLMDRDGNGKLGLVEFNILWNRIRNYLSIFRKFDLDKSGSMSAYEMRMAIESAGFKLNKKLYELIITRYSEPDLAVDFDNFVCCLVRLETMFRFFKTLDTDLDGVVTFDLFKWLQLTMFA
T6 sequence (P04632 1-268 partner): T5 sequence (P04632 1-268 partner)
The assay is described as above. As to conditions: Column A; SensoLyte 520 FRET substrate, pH 7.5, 25C. As for the experimental part: as §2, §3

The target of assay [7] is T7, Human Calpain 9/NS1 (Homo sapiens, UniProt O14815).
T7 sequence (O14815 1-690): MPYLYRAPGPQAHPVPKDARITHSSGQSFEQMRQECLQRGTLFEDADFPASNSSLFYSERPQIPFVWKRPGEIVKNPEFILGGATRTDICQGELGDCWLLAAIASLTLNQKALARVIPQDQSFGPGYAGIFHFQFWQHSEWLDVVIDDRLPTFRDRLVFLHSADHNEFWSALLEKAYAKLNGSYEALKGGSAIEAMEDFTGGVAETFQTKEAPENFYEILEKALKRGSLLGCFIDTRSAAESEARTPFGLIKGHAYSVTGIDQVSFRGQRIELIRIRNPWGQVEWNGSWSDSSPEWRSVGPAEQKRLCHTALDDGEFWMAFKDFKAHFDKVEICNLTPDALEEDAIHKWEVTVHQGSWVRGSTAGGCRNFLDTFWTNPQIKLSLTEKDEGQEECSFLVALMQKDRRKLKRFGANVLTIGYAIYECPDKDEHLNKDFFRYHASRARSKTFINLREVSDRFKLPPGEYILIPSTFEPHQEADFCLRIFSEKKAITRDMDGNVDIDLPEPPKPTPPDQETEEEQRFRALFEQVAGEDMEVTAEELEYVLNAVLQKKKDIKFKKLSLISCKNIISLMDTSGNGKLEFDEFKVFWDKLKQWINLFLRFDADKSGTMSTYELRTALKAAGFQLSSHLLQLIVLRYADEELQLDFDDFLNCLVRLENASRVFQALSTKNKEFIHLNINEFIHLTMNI
T7 sequence (P04632 1-268 partner): T5 sequence (P04632 1-268 partner)
Described as above. As to conditions: Column C; SensoLyte 520 FRET substrate, pH 7.5, 25C. On the procedure:
as §2, §3

T1 sequence (P07711 114-333): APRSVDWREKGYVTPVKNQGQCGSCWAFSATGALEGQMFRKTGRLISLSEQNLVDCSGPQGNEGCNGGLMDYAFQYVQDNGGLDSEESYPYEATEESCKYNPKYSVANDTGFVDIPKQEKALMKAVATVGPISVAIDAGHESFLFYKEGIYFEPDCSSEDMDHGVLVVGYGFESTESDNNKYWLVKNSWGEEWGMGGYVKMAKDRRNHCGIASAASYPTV

The term pIC50 denotes the IC50 on a negative log10 scale, so that one unit is a factor of ten. Low values mean a high IC50, high ones a low IC50. Turning to `CCCCCC/C=C\CC(=O)N[C@@H](Cc1ccc(O)cc1)C(=O)N[C@H](C(=O)N[C@@H]1/C=C/C(=O)N[C@@H](C(C)C)C(=O)N[C@@H](Cc2ccc(OC)cc2)C(=O)OC1)C(C)C` [Compound 11, (Z)—N—((S)-3-(4-hydroxyphenyl)-1-(((S)-1-(((3S,6S,11R,E)-6-isopropyl-3-(4-methoxybenzyl)-2,5,8-trioxo-1-oxa-4,7-diazacyclododec-9-en-11-yl)amino)-3-methyl-1-oxobutan-2-yl)amino)-1-oxopropan-2-yl)dec-3-enamide], the pIC50 in assay [1], in assay [2], in assay [3], in assay [4], in assay [5] and in assay [6] was greater than 5.52 each time. Also, the pIC50 in assay [7] was less than 5.00.
Turning to `CC(C)[C@@H]1NC(=O)/C=C/[C@@H](NC(=O)CNC(=O)[C@H](Cc2ccc(O)cc2)NC(=O)OC(C)(C)C)COC(=O)[C@H](Cc2ccc(O)cc2)NC1=O` [Compound 8, tert-butyl ((s)-1-((2-(((3S,6S,11R,E)-3-(4-hydroxybenzyl)-6-isopropyl-2,5,8-trioxo-1-oxa-4,7-diazacyclododec-9-en-11-yl)amino)-2-oxoethyl)amino)-3-(4-hydroxyphenyl)-1-oxopropan-2-yl)carbamate], the pIC50 was greater than 5.52 in assay [1]; greater than 5.52 in assay [2]; greater than 5.52 in assay [3]; greater than 5.52 in assay [4]; less than 5.00 in assay [5]; less than 5.00 in assay [6]. Besides, in assay [7], the pIC50 is less than 5.00.
In the case of `CC(C)[C@@H]1NC(=O)/C=C/[C@@H](NC(=O)[C@@H](NC(=O)[C@H](Cc2ccccc2)NC(=O)OC(C)(C)C)C(C)C)COC(=O)[C@H](Cc2ccc(O)cc2)NC1=O` [Compound 6], the negative logarithm of the IC50 (pIC50) in assay [1], in assay [2], in assay [3], in assay [4], in assay [5] and in assay [6] was greater than 5.52 in each case. This compound also showed a pIC50 in assay [7] of less than 5.00.
With `CCCCCC/C=C\CC(=O)N[C@@H](Cc1ccc(O)cc1)C(=O)N[C@H](C(=O)N[C@@H]1/C=C/C(=O)N[C@@H](C(C)C)C(=O)N[C@@H](Cc2ccc(O)cc2)C(=O)OC1)C(C)C` [Compound 18, (Z)—N—((S)-1-(((S)-1-(((3S,6S,11R,E)-3-(4-hydroxybenzyl)-6-isopropyl-2,5,8-trioxo-1-oxa-4,7-diazacyclododec-9-en-11-yl)amino)-3-methyl-1-oxobutan-2-yl)amino)-3-(4-hydroxyphenyl)-1-oxopropan-2-yl)dec-3-enamide], the pIC50 in assay [1], in assay [2], in assay [3], in assay [4], in assay [5] and in assay [6] was greater than 5.52 in each case. Further, the negative-log IC50 (pIC50) in assay [7] was less than 5.00.
On to `CCCCCC/C=C\CC(=O)N[C@@H](Cc1ccc(O)cc1)C(=O)N[C@H](C(=O)N[C@@H]1/C=C/C(=O)N[C@@H](C(C)C)C(=O)N[C@@H](C)C(=O)OC1)C(C)C` [Compound 16, (Z)—N—((S)-3-(4-hydroxyphenyl)-1-(((S)-1-(((3S,6S,11R,E)-6-isopropyl-3-methyl-2,5,8-trioxo-1-oxa-4,7-diazacyclododec-9-en-11-yl)amino)-3-methyl-1-oxobutan-2-yl)amino)-1-oxopropan-2-yl)dec-3-enamide], for which the pIC50 in assay [1], in assay [2], in assay [3], in assay [4], in assay [5] and in assay [6] was greater than 5.52 throughout. This compound gave a pIC50 in assay [7] of less than 5.00.
With `CC(C)C[C@H](NC(=O)OC(C)(C)C)C(=O)N[C@@H]1/C=C/C(=O)N[C@@H](C(C)C)C(=O)N[C@@H](Cc2ccc(O)cc2)C(=O)OC1` [Compound 12, tert-butyl ((S)-1-(((3S,6S,11R,E)-3-(4-hydroxybenzyl)-6-isopropyl-2,5,8-trioxo-1-oxa-4,7-diazacyclododec-9-en-11-yl)amino)-4-methyl-1-oxopentan-2-yl)carbamate], the pIC50 in assay [1], in assay [2], in assay [3], in assay [4], in assay [5] and in assay [6] was greater than 5.52 throughout. The compound also showed a pIC50 in assay [7] of less than 5.00.
